Laboratory results reported in patent US20260224532A1, “ESTROGEN RECEPTOR BETA LIGANDS FOR THE PREVENTION AND TREATMENT OF MULTIPLE SCLEROSIS (MS) AND OTHER DEMYELINATING, INFLAMMATORY AND NEURODEGENERATIVE DISEASES” (The Board of Trustees of the University of Illinois, priority 2023, published 2026).

Columns and labels:
[1] = molecular target: T1, purified, full length human ERα (Homo sapiens, UniProt P03372); test: Relative binding affinity (RBA) radiometric competitive binding assay, ERα; settings: for RBA ERα: relative binding affinity, E2 (estradiol) is 100%, tritiated estradiol tracer; for binding affinity for ERα (in words): compared with the other 7-substituted indazoles
T1 construct: purified, full length human ERα and ERβ
T1 sequence (P03372 1-595): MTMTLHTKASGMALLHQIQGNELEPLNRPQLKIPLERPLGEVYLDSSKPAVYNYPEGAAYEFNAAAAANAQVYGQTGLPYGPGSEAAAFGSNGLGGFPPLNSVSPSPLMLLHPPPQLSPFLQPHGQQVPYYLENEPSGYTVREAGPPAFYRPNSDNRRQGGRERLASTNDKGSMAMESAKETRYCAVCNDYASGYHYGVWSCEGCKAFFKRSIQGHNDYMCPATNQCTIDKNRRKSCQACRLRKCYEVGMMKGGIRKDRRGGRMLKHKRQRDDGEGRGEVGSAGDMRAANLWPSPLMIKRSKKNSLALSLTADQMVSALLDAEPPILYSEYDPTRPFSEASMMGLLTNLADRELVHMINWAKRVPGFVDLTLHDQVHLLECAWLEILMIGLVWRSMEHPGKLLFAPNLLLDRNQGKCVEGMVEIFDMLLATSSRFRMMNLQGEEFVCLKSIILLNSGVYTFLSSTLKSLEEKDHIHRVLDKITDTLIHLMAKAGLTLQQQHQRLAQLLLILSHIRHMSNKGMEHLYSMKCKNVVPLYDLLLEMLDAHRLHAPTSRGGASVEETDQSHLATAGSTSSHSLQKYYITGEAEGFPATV

[2] = molecular target: T2, purified, full length human ERβ (Homo sapiens, UniProt Q92731); test: Relative binding affinity (RBA) radiometric competitive binding assay, ERβ; settings: for β/α (ERβ/ERα selectivity): ratio of RBA ERβ to RBA ERα; for RBA ERβ: relative binding affinity, E2 (estradiol) is 100%, tritiated estradiol tracer; for selectivity of binding to ERβ vs ERα: text statement of the β/α ratio; for binding affinity for ERβ (in words): compared with the other 7-substituted indazoles
T2 construct: purified, full length human ERα and ERβ

Primary OPCs = test: Primary OPC culture: MBP+ OL differentiation and total cell count (DAPI); format: cell-based, mouse; settings: for number of MBP+ OLs with increased percentage of branched OLs, compared to vehicle-treated cells / total number of cells (DAPI): 10 nM
Description: Primary OPC Cultures: Primary OPCs, isolated from postnatal day P1 C57BL/6 male and female mouse cortices as described previously, are treated with 10 nM ligands in differentiating medium for […] (Tiwari-Woodruff et al., 2001; Tiwari-Woodruff et al., 2006). Primary OPC are cultured into 8-well chamber slides (three wells per condition, 2.5×10^5 cells/well) for three days to attach and five days in differentiating media (consisting of DMEM-F12 with triiodothyronine- and thyroxine-containing Sato as well as penicillin, streptomycin, insulin, N-acetyl-L-cysteine, forskolin, ciliary neurotrophic factor, neurotrophin-3, and platelet-derived growth factor […] (Tiwari-Woodruff et al., 2001)). A positive control (IndC1), a negative control (Vehicle consisting of the media+EtOH mixture used to dissolve IndCl), and a normal control (differentiating media alone) are used for comparison. At the end of the treatment period, cells are fixed, stained by immunocytochemistry (primary antibody polyclonal chicken myelin basic protein (MBP, Millipore AB9348), and co-stained with nuclear stain-DAPI), and imaged with an Olympus BX61 confocal microscope (Olympus America Inc., Center Valley, PA) at 10× magnification (3 images per well). Cells are counted using the ImageJ multipoint tool, and counts are then divided by the image area (mm^2). Average cell density for each condition is then divided by the normal condition cell density. Analysis of OL differentiation consists of counting the number of MBP+ cells and process extensions that are longer than the respective cell-body diameter and tracking the number of highly branched MBP+ cells (with three or more processes) (Monnerie et al., 2017). Statistics are performed using GraphPad Prism 6 Software (La Jolla, CA). One-way ANOVA with Tukey's posthoc test for multiple comparisons is used to generate p-values, and data are presented as mean±SEM (with α≤0.05).
FIG. 1A-1D show the effects of treatment with the 7-substituted indazole compounds on the expression of myelin basic protein in OLs (MBP^+-OLs, top two panels) as an indication of murine oligodendrocyte precursor cell (OPC) differentiation, as well as the count of the total cells as an indication of cell proliferation/survival (DAPI nucleus stain, bottom two panels). The cells were treated with the listed compounds at 10 nM (FIG. 1A, 1B) and at 1 nM (FIG. 1C, 1D).

[3] = system: Cuprizone-Induced Demyelinated Mouse Model; test: Myelin recovery in the cuprizone-induced demyelinated mouse model (MOG IHC, Corpus Callosum); format: in vivo, C57BL/6 female mice; settings: SC 5 mg/kg, 1.5-weeks treatment after 6 weeks cuprizone
Description: The Cuprizone assay of demyelination-remyelination was conducted by the methods described previously (Moore et al. 2013; Crawford et al, 2009a,b). A group of animals was on normal diet (N groups). The remainder of the mice were divided into groups of 5 and all of these groups of mice were fed cuprizone diet at (0.2% cuprizone mixed in chow). After 6 weeks on cuprizone diet-induced demyelination, a group of 5 mice were perfused (DM group). The other groups of mice were switched to normal diet for 1.5 weeks to initiate remyelination and were treated with either (i) Vehicle (SC+V) or (ii) test compound at a dose of 5 mg/kg. […] After 1.5 weeks of normal diet-induced remyelination, the mice were perfused. Brains were collected, cryoprotected, embedded, cut, and IHC for myelin oligodendrocyte glycoproteins (MOG) was performed. Cuprizone study results after 1.5-weeks treatment with the designated 7-substituted compounds via SC administration following 6 weeks cuprizone treatment of (C57BL/6) female mice are shown in FIG. 5. The height of each bar graph represents level of myelination assessed by the expression of MOG in the white matter tracks of the Corpus Callosum area quantified by immunohistochemical analysis (IHC) after staining with a MOG antibody. N: Normal diet, DM: Demyelinated status after 6 weeks cuprizone treatment, SC-Veh: Spontaneous remyelination after injection with matrix in saline solution only (without compound; recovery is only about 40%). (Mice: ~2 months age, SC: Subcutaneous injection, n=5). Cuprizone study results for the 3-weeks treatment with the 6-substituted compound 17 via SC administration following the 6 weeks of 0.2% cuprizone treatment of C57BL/6 female mice are shown in FIG. 6. The height of each bar graph represents level of myelination assessed by the expression of MOG in the white matter tracks of the Corpus Callosum area quantified by immunohistochemical analysis (IHC) after staining with a MOG antibody. N: Normal diet, DM: Demyelinated status after 6 weeks cuprizone treatment, SC-Veh: Spontaneous remyelination after injection with matrix in saline solution only (without compound; recovery is only about 40%). (Mice: ~2 months age, SC: Subcutaneous injection, n=5~6). […] (Mice: ~2 months age, s.c.: Subcutaneous administration, n=5).

T2 sequence (Q92731 whole entry): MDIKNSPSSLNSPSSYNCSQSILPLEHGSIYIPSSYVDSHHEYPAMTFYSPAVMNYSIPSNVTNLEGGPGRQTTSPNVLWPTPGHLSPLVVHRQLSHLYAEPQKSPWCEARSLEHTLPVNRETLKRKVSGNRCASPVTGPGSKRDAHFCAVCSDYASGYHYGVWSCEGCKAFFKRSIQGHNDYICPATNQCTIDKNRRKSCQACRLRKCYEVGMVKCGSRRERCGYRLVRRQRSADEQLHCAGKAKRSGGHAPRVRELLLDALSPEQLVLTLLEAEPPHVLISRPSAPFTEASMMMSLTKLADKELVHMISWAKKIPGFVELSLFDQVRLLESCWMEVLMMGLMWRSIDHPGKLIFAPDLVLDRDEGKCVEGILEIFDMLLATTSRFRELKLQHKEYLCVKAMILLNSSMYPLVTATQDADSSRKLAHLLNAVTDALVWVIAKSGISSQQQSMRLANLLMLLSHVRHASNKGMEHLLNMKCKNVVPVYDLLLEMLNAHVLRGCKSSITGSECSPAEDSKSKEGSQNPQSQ

| SMILES | RBA ERα [1] | β/α (ERβ/ERα selectivity) [2] | RBA ERβ [2] | selectivity of binding to ERβ vs ERα [2] | number of MBP+ OLs with increased percentage of branched OLs, compared to vehicle-treated cells (Primary OPCs) | total number of cells (DAPI) (Primary OPCs) | remyelination (MOG expression in Corpus Callosum) [3] | MBP expression / number of MBP+ OLs, compared to vehicle-treated cells (Primary OPCs; 1 nM) | binding affinity for ERα (in words) [1] | binding affinity for ERβ (in words) [2] |
| --- | --- | --- | --- | --- | --- | --- | --- | --- | --- | --- |
| Oc1ccc(-n2cc3cc(O)cc(Br)c3n2)cc1 [Compound 1, 7-bromo-2-(4-hydroxyphenyl)-2H-indazol-5-ol] | 0.244% | 131 | 32.01 ± 0.09% | 131 fold | significant increase | – | – | – | – | – |
| Oc1ccc(-n2nc3c(Br)cc(O)cc3c2F)cc1 [Compound 2, 7-bromo-3-fluoro-2-(4-hydroxyphenyl)-2H-indazol-5-ol] | 2.27% | 70.1 | – | – | – | reduction | – | – | – | – |
| Oc1ccc(-n2nc3c(Br)cc(O)cc3c2Cl)cc1 [Compound 3, 7-bromo-3-chloro-2-(4-hydroxyphenyl)-2H-indazol-5-ol] | 15.57% | 18 | – | – | – | reduction | – | – | – | – |
| Oc1ccc(-n2nc3c(Br)cc(O)cc3c2Br)cc1 [Compound 4, 3,7-dibromo-2-(4-hydroxyphenyl)-2H-indazol-5-ol] | 21.29% | 7 | – | – | – | – | – | – | – | – |
| Oc1ccc(-n2cc3cc(O)cc(Cl)c3n2)cc1 [Compound 6, 7-chloro-2-(4-hydroxyphenyl)-2H-indazol-5-ol] | 0.098% | 200 | 19.6 ± 6.1% | 200 fold | – | – | – | – | – | – |
| Oc1ccc(-n2cc3cc(O)cc(F)c3n2)cc1 [Compound 8, 7-fluoro-2-(4-hydroxyphenyl)-2H-indazol-5-ol] | 0.258% | 87 | 22.4% | – | – | – | – | – | – | – |
| Oc1ccc(-n2nc3c(F)cc(O)cc3c2Cl)cc1 [Compound 9, 3-Chloro-7-fluoro-2-(4-hydroxyphenyl)-2H-indazol-5-ol] | 2.2% | 37 | 82.3% | – | – | – | – | – | – | – |
| Cc1cc(O)cc2cn(-c3ccc(O)cc3)nc12 [Compound 10, 7-methyl-2-(4-hydroxyphenyl)-2H-indazol-5-ol] | 0.018% | 144 | 2.59% | 144 fold | – | – | – | – | – | – |
| Cc1cc(O)cc2c(Cl)n(-c3ccc(O)cc3)nc12 [Compound 11, 3-Chloro-7-methyl-2-(4-hydroxyphenyl)-2H-indazol-5-ol] | 2.76% | 17 | 45.9% | – | – | – | – | – | – | – |
| Oc1cccc(-n2nc3c(Br)cc(O)cc3c2Cl)c1 [Compound 12, 7-Bromo-3-chloro-2-(3-hydroxyphenyl)-2H-indazol-5-ol] | 0.16% | 246 | 39.4% | 246 fold | – | – | does not accelerate remyelination | – | – | – |
| Oc1cc(Cl)c2nn(-c3ccc(O)c(F)c3)cc2c1 [Compound 13, 7-Chloro-2-(3-fluoro-4-hydroxyphenyl)-2H-indazol-5-ol] | 0.023% | 469 | 10.76% | 469 fold | – | – | – | – | – | – |
| Oc1cc(Cl)c2nn(-c3ccc(O)c(F)c3)c(Cl)c2c1 [Compound 14, 3,7-dichloro-2-(3-fluoro-4-hydroxyphenyl)-2H-indazol-5-ol] | 0.86% | 38.3 | 32.96% | – | significant increase | – | somewhat less remyelination | – | – | – |
| Oc1ccc(-n2cc3cc(O)cc(Cl)c3n2)c(F)c1 [Compound 15, 7-chloro-2-(2-fluoro-4-hydroxyphenyl)-2H-indazol-5-ol] | 0.052% | 185 | 9.63% | 185 fold | – | – | – | – | – | – |
| Oc1ccc(-n2nc3c(Cl)cc(O)cc3c2Cl)c(F)c1 [Compound 16, 3,7-dichloro-2-(2-fluoro-4-hydroxyphenyl)-2H-indazol-5-ol] | 4.71% | 6.74 | 31.76% | – | – | – | – | – | – | – |
| Cc1cc(O)ccc1-n1nc2cc(F)c(O)cc2c1Cl [Compound 18, 3-Chloro-6-fluoro-2-(4-hydroxy-2-methylphenyl)-2H-indazol-5-ol] | 0.545% | 4.64 | 2.53% | – | significant increase | – | – | significant increase | – | – |
| Oc1ccc(-n2nc3cc(Cl)c(O)cc3c2Cl)cc1 [Compound 19, 3,6-dichloro-2-(4-hydroxyphenyl)-2H-indazol-5-ol] | 0.055% | 15.49 | 0.852% | – | – | – | – | – | – | – |
| Cc1cc(O)ccc1-n1nc2cc(Cl)c(O)cc2c1Cl [Compound 20, 3,6-dichloro-2-(4-hydroxy-2-methylphenyl)-2H-indazol-5-ol] | 0.071% | 2.63 | 0.187% | – | – | – | – | – | – | – |
| Oc1ccc(-n2nc3c(O)cc(O)cc3c2Cl)cc1 [Compound 21, 3-chloro-2-(4-hydroxyphenyl)-2H-indazole-5,7-diol] | 0.001% | 51 | 0.051% | – | – | – | – | – | lower binding affinity | lower binding affinity |
| Cc1cc(O)ccc1-n1nc2c(O)cc(O)cc2c1Cl [Compound 22, 3-chloro-2-(4-hydroxy-2-methylphenyl)-2H-indazole-5,7-diol] | 0.0005% | 12 | 0.006% | – | – | – | – | – | lower binding affinity | lower binding affinity |
